Laboratory results reported in PubChem BioAssay (NCI).
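All cell lines were grown in 96-well plates and treated with compound for 48 hours. Abbreviation: GI50, concentration required for 50% inhibition of growth. Definition used: TGI = concentration required for complete inhibition of growth.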

Experiments:
Test in all cases: NCI-60 cell line screen, 48 h
[1] = system: 786-0 renal
[2] = system: A498 renal
[3] = system: A549 NSCLC
[4] = system: ACHN renal
[5] = system: BT-549 breast
[6] = system: CAKI-1 renal
[7] = system: CCRF-CEM leukemia
[8] = system: COLO 205 colon
[9] = system: DU-145 prostate
[10] = system: EKVX NSCLC
[11] = system: HCC-2998 colon
[12] = system: HCT-116 colon
[13] = system: HCT-15 colon
[14] = system: HL-60(TB) leukemia
[15] = system: HOP-62 NSCLC
[16] = system: HOP-92 NSCLC
[17] = system: HS 578T breast
[18] = system: HT29 colon
[19] = system: IGROV1 ovarian
[20] = system: K-562 leukemia
[21] = system: KM12 colon
[22] = system: LOX IMVI melanoma
[23] = system: M14 melanoma
[24] = system: MALME-3M melanoma
[25] = system: MCF7 breast
[26] = system: MDA-MB-231 breast
[27] = system: MDA-MB-435
[28] = system: MOLT-4 leukemia
[29] = system: NCI-H226 lung
[30] = system: NCI-H23 lung
[31] = system: NCI-H460 lung
[32] = system: NCI-H522 lung
[33] = system: NCI/ADR-RES ovarian
[34] = system: OVCAR-3 ovarian
[35] = system: OVCAR-4 ovarian
[36] = system: OVCAR-5 ovarian
[37] = system: OVCAR-8 ovarian
[38] = system: PC-3 prostate
[39] = system: RPMI-8226 leukemia
[40] = system: RXF 393 renal
[41] = system: SF-268 CNS
[42] = system: SF-295 CNS
[43] = system: SF-539 CNS
[44] = system: SK-MEL-2 melanoma
[45] = system: SK-MEL-28 melanoma
[46] = system: SK-MEL-5 melanoma
[47] = system: SK-OV-3 ovarian
[48] = system: SN12C renal
[49] = system: SNB-19 CNS
[50] = system: SNB-75 CNS
[51] = system: SR leukemia
[52] = system: SW-620 colon
[53] = system: T-47D breast
[54] = system: TK-10 renal
[55] = system: U251 CNS
[56] = system: UACC-257 melanoma
[57] = system: UACC-62 melanoma
[58] = system: UO-31 renal

O=C1CCc2c(sc3[nH]c(=S)n(Cc4ccccc4)c(=O)c23)C1
GI50 [1]: 4 µM | TGI [1]: > 100 µM | GI50 [2]: 3.44 µM | TGI [2]: > 100 µM | GI50 [3]: 3.29 µM | TGI [3]: > 100 µM | GI50 [4]: 3.73 µM | TGI [4]: > 100 µM | GI50 [5]: 1.82 µM | TGI [5]: 7.35 µM | GI50 [6]: 2.54 µM | TGI [6]: 8.31 µM | GI50 [7]: 2.88 µM | TGI [7]: 10.3 µM | GI50 [8]: 2.36 µM | TGI [8]: 4.99 µM | GI50 [9]: 5.06 µM | TGI [9]: > 100 µM | GI50 [10]: 3.58 µM | TGI [10]: > 100 µM | GI50 [11]: 2.88 µM | TGI [11]: 14 µM | GI50 [12]: 3.38 µM | TGI [12]: > 100 µM | GI50 [13]: 2.78 µM | TGI [13]: 13.8 µM | GI50 [14]: 1.95 µM | TGI [14]: 20.2 µM | GI50 [15]: 3.84 µM | TGI [15]: > 100 µM | GI50 [16]: 1.92 µM | TGI [16]: 5.33 µM | GI50 [17]: 3.09 µM | TGI [17]: > 100 µM | GI50 [18]: 3.84 µM | TGI [18]: 27 µM | GI50 [19]: 5.11 µM | TGI [19]: > 100 µM | GI50 [20]: 1.76 µM | TGI [20]: > 100 µM | GI50 [21]: 1.73 µM | TGI [21]: 6.56 µM | GI50 [22]: 3.38 µM | TGI [22]: 12.5 µM | GI50 [23]: 3.75 µM | TGI [23]: > 100 µM | GI50 [24]: 4.53 µM | TGI [24]: > 100 µM | GI50 [25]: 3.26 µM | TGI [25]: 12.4 µM | GI50 [26]: 4.54 µM | TGI [26]: > 100 µM | GI50 [27]: 3.43 µM | TGI [27]: > 100 µM | GI50 [28]: 4.39 µM | TGI [28]: > 100 µM | GI50 [29]: 4.05 µM | TGI [29]: > 100 µM | GI50 [30]: 2.79 µM | TGI [30]: 8.6 µM | GI50 [31]: 3.64 µM | TGI [31]: > 100 µM | GI50 [32]: 0.852 µM | TGI [32]: 5.05 µM | GI50 [33]: 3.25 µM | TGI [33]: > 100 µM | GI50 [34]: 3.72 µM | TGI [34]: > 100 µM | GI50 [35]: 3.99 µM | TGI [35]: > 100 µM | GI50 [36]: 3.67 µM | TGI [36]: > 100 µM | GI50 [37]: 3.19 µM | TGI [37]: > 100 µM | GI50 [38]: 0.616 µM | TGI [38]: > 100 µM | GI50 [39]: 1.18 µM | TGI [39]: 9.79 µM | GI50 [40]: 5.81 µM | TGI [40]: > 100 µM | GI50 [41]: 3.55 µM | TGI [41]: > 100 µM | GI50 [42]: 2.46 µM | TGI [42]: 7.23 µM | GI50 [43]: 2.15 µM | TGI [43]: 5.61 µM | GI50 [44]: 2.49 µM | TGI [44]: 5.81 µM | GI50 [45]: 4.4 µM | TGI [45]: > 100 µM | GI50 [46]: 1.86 µM | TGI [46]: 3.74 µM | GI50 [47]: 2.68 µM | TGI [47]: 7.05 µM | GI50 [48]: 3.25 µM | TGI [48]: > 100 µM | GI50 [49]: 3.93 µM | TGI [49]: > 100 µM | GI50 [50]: 2.34 µM | TGI [50]: > 100 µM | GI50 [51]: 2.3 µM | TGI [51]: 8.22 µM | GI50 [52]: 4.2 µM | TGI [52]: > 100 µM | GI50 [53]: 2.41 µM | TGI [53]: 43.9 µM | GI50 [54]: 4.51 µM | TGI [54]: > 100 µM | GI50 [55]: 2.14 µM | TGI [55]: > 100 µM | GI50 [56]: 2.36 µM | TGI [56]: 7.06 µM | GI50 [57]: 2.54 µM | TGI [57]: 13.2 µM | GI50 [58]: 2.62 µM | TGI [58]: 9.7 µM
